Target: T1, hERG channel (Homo sapiens, UniProt Q12809)
T1 construct: expressed in transfected cells; host or cells: CHO (Chinese hamster ovary), CHOhERG
Experiment: hERG channel inhibition assay (patch-clamp, CHOhERG cells)
Assay type: cell-based
Settings: for IC50 / IC20: CHOhERG cells, whole-cell patch-clamp; for IC20: human, CHO cells stably expressing hERG (CHOhERG); for hERG IC20/TLR7 IC50 / hERG IC20/TLR8 IC50 / hERG IC20/TLR9 IC50: safety ratio
Outline: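 Whole-cell voltage-clamp recordings of IKhERG in CHO cells stably expressing human hERG, stimulated at 0.1 Hz. Compound applied at rising concentrations, each held 3–10 min to reach steady state; current amplitude and kinetics compared with pre-drug control set as 100%.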

T1 sequence (Q12809 whole entry): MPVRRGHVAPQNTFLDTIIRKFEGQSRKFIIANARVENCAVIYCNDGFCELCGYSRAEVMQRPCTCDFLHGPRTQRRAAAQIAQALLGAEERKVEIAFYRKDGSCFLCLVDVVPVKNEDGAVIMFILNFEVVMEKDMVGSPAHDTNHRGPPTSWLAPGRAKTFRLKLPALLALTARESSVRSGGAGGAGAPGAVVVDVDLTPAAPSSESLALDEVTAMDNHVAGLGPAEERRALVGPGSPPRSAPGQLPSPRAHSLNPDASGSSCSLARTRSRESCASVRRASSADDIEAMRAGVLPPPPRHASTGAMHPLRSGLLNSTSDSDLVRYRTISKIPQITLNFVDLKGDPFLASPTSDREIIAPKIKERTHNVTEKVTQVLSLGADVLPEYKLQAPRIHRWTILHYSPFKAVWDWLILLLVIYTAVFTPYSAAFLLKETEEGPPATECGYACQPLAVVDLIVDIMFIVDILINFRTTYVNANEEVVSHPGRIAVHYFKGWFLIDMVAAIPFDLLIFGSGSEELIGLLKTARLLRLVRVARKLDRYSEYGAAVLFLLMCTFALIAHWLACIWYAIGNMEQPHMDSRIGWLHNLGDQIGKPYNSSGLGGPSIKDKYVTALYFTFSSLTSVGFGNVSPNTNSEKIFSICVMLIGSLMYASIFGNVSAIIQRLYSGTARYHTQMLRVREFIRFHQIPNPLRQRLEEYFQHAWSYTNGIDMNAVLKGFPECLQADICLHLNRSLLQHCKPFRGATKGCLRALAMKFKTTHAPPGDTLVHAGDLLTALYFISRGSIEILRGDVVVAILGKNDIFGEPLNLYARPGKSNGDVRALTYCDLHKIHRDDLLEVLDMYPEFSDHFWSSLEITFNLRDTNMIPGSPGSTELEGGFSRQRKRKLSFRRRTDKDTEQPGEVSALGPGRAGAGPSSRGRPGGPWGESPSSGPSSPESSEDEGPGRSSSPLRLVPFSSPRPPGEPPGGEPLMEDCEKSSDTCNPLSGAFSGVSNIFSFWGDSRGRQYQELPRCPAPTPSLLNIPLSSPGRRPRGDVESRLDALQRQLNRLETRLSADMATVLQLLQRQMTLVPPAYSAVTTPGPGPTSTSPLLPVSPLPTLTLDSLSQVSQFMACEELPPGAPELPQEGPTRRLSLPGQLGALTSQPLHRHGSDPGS

SMILES	IC50 [µM]	IC20 [µM]	hERG IC20/TLR7 IC50	hERG IC20/TLR8 IC50	hERG IC20/TLR9 IC50
C[C@@H]1CN(c2ccc(C#N)c3ncccc23)C[C@@H]2CN(Cc3ccc4c(c3)CNCC4)CCN21 (relative stereo) [Example 1]	> 20	> 10	>588	>1000	>172
[2H]c1ccc2c(N3C[C@@H]4CN(Cc5ccc(N6CC7(CN(C)C7)C6)nc5C)CCN4[C@H](C)C3)ccc(C#N)c2n1 [Example 80, 5-[(4R,9aS)-4-methyl-8-[[2-methyl-6-(6-methyl-2,6-diazaspiro[3.3]heptan-2-yl)-3-pyridyl]methyl]-3,4,6,7,9,9a-hexahydro-1H-pyrazino[1,2-a]pyrazin-2-yl]-2-deuterio-quinoline-8-carbonitrile]	> 20	> 10	>434	>2000	>312
[2H]c1ccc2c(N3C[C@@H]4CN(Cc5ccc(N[C@H]6CNC[C@H]6F)nc5C)CCN4[C@H](C)C3)ccc(C#N)c2n1 [Example 82, 5-[(4R,9aS)-8-[[6-[[(3S,4R)-4-fluoropyrrolidin-3-yl]amino]-2-methyl-3-pyridyl]methyl]-4-methyl-3,4,6,7,9,9a-hexahydro-JH-pyrazino[1,2-a]pyrazin-2-yl]-2-deuterio-quinoline-8-carbonitrile]	> 20	> 10	>833	>3333	>243
[2H]c1ccc2c(N3C[C@@H]4CN(Cc5ccc(N6CC7CNCC(C6)O7)nc5C)CCN4[C@H](C)C3)ccc(C#N)c2n1 [Example 83, 5-[(4R,9aS)-4-methyl-8-[[2-methyl-6-(9-oxa-3,7-diazabicyclo[3.3.1]nonan-3-yl)-3-pyridyl]methyl]-3,4,6,7,9,9a-hexahydro-1H-pyrazino[1,2-a]pyrazin-2-yl]-2-deuterio-quinoline-8-carbonitrile]	> 20	> 10	>588	>1428	>196
[2H]c1ccc2c(N3C[C@@H]4CN(Cc5ccc(N6C[C@@H]7C[C@H]6CN7)nc5C)CCN4[C@H](C)C3)ccc(C#N)c2n1 [Example 92, 5-[(4R,9aS)-8-[[6-[(1S,4S)-2,5-diazabicyclo[2.2.1]heptan-2-yl]-2-methyl-3-pyridyl]methyl]-4-methyl-3,4,6,7,9,9a-hexahydro-1H-pyrazino[1,2-a]pyrazin-2-yl]-2-deuterio-quinoline-8-carbonitrile]	> 20	> 10	>1666	>1111	>294
Cc1cc(N2CCNCC2)cnc1N1CCN2[C@@H](C1)CN(c1cc(=O)n(C)c3ncccc13)C[C@H]2C [Example 93, 4-[(4R,9aR)-4-methyl-8-(3-methyl-5-piperazin-1-yl-2-pyridyl)-3,4,6,7,9,9a-hexahydro-1H-pyrazino[1,2-a]pyrazin-2-yl]-1-methyl-1,8-naphthyridin-2-one]	> 20	> 10	>1000	>163	>53
[2H]c1ccc2c(N3C[C@@H]4CN(Cc5ccc(N6C[C@H]7NCCO[C@@H]7C6)nc5C)CCN4[C@H](C)C3)ccc(C#N)c2n1 [Example 98, 5-[(4R,9aS)-8-[[6-[(4aR,7aR)-3,4,4a,5,7,7a-hexahydro-2H-pyrrolo[3,4-b][1,4]oxazin-6-yl]-2-methyl-3-pyridyl]methyl]-4-methyl-3,4,6,7,9,9a-hexahydro-1H-pyrazino[1,2-a]pyrazin-2-yl]-2-deuterio-quinoline-8-carbonitrile]	> 20	> 10	>416	>1000	>172

From patent US20220340597A1, “HEXAHYDRO-1H-PYRAZINO[1,2-A]PYRAZINE COMPOUNDS FOR THE TREATMENT OF AUTOIMMUNE DISEASE” (Hoffmann-La Roche Inc., priority 2019, published 2022)
